The values below come from publication PMC10205807, “Cross-species comparison in nonclinical pharmacokinetics of lenvatinib by a simple HPLC with ultraviolet detection” (Scientific Reports, 2023).

The nature of data set [1]: PK study in dogs (intravenous and oral). Format: in vivo. As for the experimental part:
Male beagle dogs purchased from Marshall Farm USA Inc. (NY, USA) were used for the PK study. Dogs were 16 months old when the PK study was conducted. The PK study was performed in a cross-over design with 8 days interval between the doses. Dogs were fasted a day before the PK study and feeding was resumed 4 h postdose. Dosing solution of lenvatinib used in the dog PK study was the same as that in the rodent PK studies. Lenvatinib was intravenously administered at the dose of 3 mg/kg via cephalic vein. Oral administration of lenvatinib was conducted at 3 mg/kg by using a tube with a disposable syringe, and then the dosing tube was given ca. 30 mL of water to flush the remaining dosing solution in the tube. The number of dogs at each dose was four. Approximately 0.5 mL of blood samples were serially obtained from the cephalic vein using a heparinized syringe at pre-dose, and at 5, 15 and 30 min, and 1, 2, 4, 6, 8, 12 and 24 h post-dose. Plasma sample preparation and sample storage were the same as those in the rodent PK studies. PK parameters of lenvatinib were estimated by model independent analysis using a WinNonlin program (Version 4.1, Pharsight Corporation, Mountain View, CA). The time to reach the maximum plasma concentration (Tmax) and the maximum plasma concentration (Cmax) values were obtained directly from the plasma concentration data. Terminal half-life (T1/2) was calculated by ln2/ke, where ke is the slope of the regression line that fits the portion of the terminal phase (at least three time points) in the log-linear concentration–time curve. AUC0–t and AUMC0–t, the area under the concentration–time curves and the area under the first moment curve, from time = zero to time = t, respectively, were calculated using the lenvatinib concentrations in plasma by the linear/log trapezoidal method. AUC0–inf was calculated by AUC0–t + Ct/ke, and AUMC0–inf was AUMC0–t + Ct × t/ke + Ct/(ke)^2, where Ct is the last measurable concentration at time = t. The plasma concentration at time zero for the intravenous dose was extrapolated, while zero was used for the oral doses. Mean residence time (MRT), total plasma clearance (CLtot) and the volume of distribution at steady state (Vdss) were calculated by AUMC0–inf/AUC0–inf, Dose/AUC0–inf and CLtot × MRT, respectively. Oral bioavailability (F) was estimated by comparing dose-normalized AUC0–inf after oral (AUC0–inf.po) and intravenous (AUC0–inf.iv) administration as follows: F (%) = (AUC0–inf.po/AUC0–inf.iv) × 100.

A short description of data set [2]: Stability of lenvatinib in rat plasma and processed samples. Format: physicochemical, rats. To be noted: for Processed sample stability, mean percentage bias from the theoretical values: processed rat plasma samples, 4 °C, 7 days. The method, then:
Calibration samples and QC samples for the reproducibility assessment were prepared by spiking 0.05 mL of the working standard solutions to blank plasma (0.05 mL), and QC samples for the stability assessment were prepared by fortifying 0.05 mL of the solution to 1.5 mL of bank plasma. Lenvatinib concentrations in plasma were 0.005, 0.01, 0.03, 0.1, 0.3, 1, 3, 10, 30, and 100 μg/mL for the calibration samples, and were 0.005, 0.01, 1, and 100 μg/mL for the QC samples for reproducibility assessment. Lenvatinib concentrations of QC samples for the stability assessment were 0.01, 1, and 80 μg/mL.
The developed method for the determination of lenvatinib concentrations in plasma was validated and the following validation parameters including linearity, selectivity, intra- and inter-batch reproducibility, extraction recovery, and stability were evaluated in accordance with the bioanalytical guidelines by United States Food and Drug Administration (US-FDA)[7]. The peak height ratios of lenvatinib to the IS of calibration samples were plotted against the corresponding nominal concentrations of lenvatinib. The calibration curve was prepared by the least square method with 1/(concentration)^2 as the weighting factor. In the linearity assessment, accuracy of each calibration sample was determined to ensure that relative error (RE) at each concentration was within ± 15% (within ± 20% at the LLOQ). […] Intra-batch accuracy and precision were evaluated using QC samples at the four concentrations, LLOQ, low QC (LQC), mid QC (MQC), and ULOQ. […] Inter-batch accuracy and precision were evaluated by testing a single sample at each concentration across five batches (n = 5 in total). […] Extraction recoveries of lenvatinib and the IS from plasma samples of the four species were evaluated. The recoveries of lenvatinib at the low, mid, and high QC levels (triplicates per concentration), and that of the IS (0.5 μg/mL) were determined. […] Stability of lenvatinib in plasma and processed samples was assessed at the low and high QC levels. Lenvatinib concentrations in samples after storage were compared to the theoretical concentrations and RE values were calculated. […] Freeze–thaw stability in plasma was evaluated up to three freeze–thaw cycles and frozen stability in plasma was evaluated at − 15 °C or below for 4 weeks (mice, rats, and dogs) or 6 weeks (monkeys). Stability in processed samples was assessed at 4 °C for 7 days. Stability of lenvatinib in the standard solutions was evaluated for the stock (100 μg/mL) and the working solution (5 ng/mL). The stability of the IS solution (0.5 μg/mL) was also assessed. […]

The mark [3] stands for this setting: male, beagle, dog, plasma, intravenous 3 mg/kg.
Where [4] appears, read: male, beagle, dog, plasma, oral 3 mg/kg.

Each structure is given as a SMILES string.

The term AUC(0-inf) denotes the area under the concentration-time curve extrapolated to infinity. A higher AUC(0-inf) goes with high exposure. For orientation: MRT means a mean duration of stay, worked out from the concentration-time curve. Broadly, the half-life is how long it takes for the measured level to halve. Read a high half-life as slow loss. For orientation: Cmax means the maximum level reached in the sampled fluid or tissue. As a reminder, the bioavailability is dose-corrected exposure relative to a reference, in per cent. Usually Tmax stands for the time from dosing to the highest level. Regarding `COc1cc2nccc(Oc3ccc(NC(=O)NC4CC4)c(Cl)c3)c2cc1C(N)=O` [lenvatinib, Lenvatinib], the “CLint (hepatic intrinsic clearance)” value in data set [1] (estimated from oral PK, Fa and Fg assumed unity, BW 10 kg) is listed as 61,500 mL/h. Also, in data set [1] (setting [3]), the total exposure AUC(0-inf) was 8420 ± 927 ng·h/mL, the MRT turned out to be 4.34 ± 0.36 h and the half-life was 5.27 ± 0.83 h. Also, the C0 in data set [1] (male, beagle, dog, plasma, intravenous 3 mg/kg, extrapolated) was 2440 ± 303 ng/mL. Further, the clearance in data set [1] (male, beagle, dog, plasma, intravenous 3 mg/kg, read-out: CLtot (converted)) is 6.13 mL/min/kg. Besides, in data set [1] (male, beagle, dog, plasma, intravenous 3 mg/kg, read-out: Vdss), the Vd came out at 1.61 ± 0.249 L/kg. In data set [1] (setting [4]), this compound gave an AUC(0-inf) of 5480 ± 1370 ng·h/mL, a Cmax of 1270 ± 302 ng/mL, an MRT of 4.81 ± 0.25 h and a half-life of 4.76 ± 0.94 h. The bioavailability in data set [1] (male, beagle, dog, plasma, oral 3 mg/kg vs intravenous 3 mg/kg, read-out: F (oral bioavailability)) turned out to be 70.4 ± 23.1%. Besides, the Tmax in data set [1] (male, beagle, dog, plasma, oral 3 mg/kg, median (range)) is 2 h. Also, in data set [2] (HQC 80 μg/mL), the “Processed sample stability, mean percentage bias from the theoretical values” worked out at 0.3%. In addition, in data set [2] (MQC 1 μg/mL), the “Processed sample stability, mean percentage bias from the theoretical values” is 0.2%. The “Freeze/thaw stability, mean percentage bias from the theoretical values” in data set [2] (rat plasma, 3 cycles, MQC 1 μg/mL) was 3.6%. For the same compound, the “Frozen stability, mean percentage bias from the theoretical values” in data set [2] (rat plasma, below − 15 °C, 4 weeks, LQC 0.01 μg/mL) is 1.0%.
